Source: US12606520B2, “Calpain-2 inhibitor compounds and methods of treatment” (WESTERN UNIVERSITY OF HEALTH SCIENCES, priority 2020, dated 2026)
Entries after “also recorded” stand apart in the source; their conditions may differ.

Columns and labels:
calpain-2 = molecular target: T1, calpain-2 (Homo sapiens, UniProt P17655); test: Inhibitory activity of NA112 isomers against calpain-2; type: biochemical; settings: highest concentration tested, 3 μM
T1 sequence (P17655 1-700): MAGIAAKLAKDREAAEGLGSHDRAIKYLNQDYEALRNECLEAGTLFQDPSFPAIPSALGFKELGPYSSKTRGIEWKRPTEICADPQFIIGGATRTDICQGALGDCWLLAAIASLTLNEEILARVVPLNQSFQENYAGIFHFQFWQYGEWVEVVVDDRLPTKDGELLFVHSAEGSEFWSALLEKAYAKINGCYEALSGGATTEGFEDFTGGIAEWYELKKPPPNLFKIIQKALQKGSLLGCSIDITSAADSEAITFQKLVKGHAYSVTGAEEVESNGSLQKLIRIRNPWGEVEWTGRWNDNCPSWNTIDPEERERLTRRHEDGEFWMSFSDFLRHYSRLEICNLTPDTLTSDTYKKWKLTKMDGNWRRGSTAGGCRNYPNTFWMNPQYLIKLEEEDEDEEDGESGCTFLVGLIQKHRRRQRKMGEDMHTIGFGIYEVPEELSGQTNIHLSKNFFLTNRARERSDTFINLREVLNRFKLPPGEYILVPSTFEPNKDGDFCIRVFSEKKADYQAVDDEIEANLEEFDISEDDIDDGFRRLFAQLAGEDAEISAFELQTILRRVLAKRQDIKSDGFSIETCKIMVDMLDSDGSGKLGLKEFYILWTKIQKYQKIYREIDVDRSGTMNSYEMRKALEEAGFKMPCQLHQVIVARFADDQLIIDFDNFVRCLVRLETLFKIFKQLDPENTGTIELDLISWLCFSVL
T1 sequence (P04632 1-268 partner): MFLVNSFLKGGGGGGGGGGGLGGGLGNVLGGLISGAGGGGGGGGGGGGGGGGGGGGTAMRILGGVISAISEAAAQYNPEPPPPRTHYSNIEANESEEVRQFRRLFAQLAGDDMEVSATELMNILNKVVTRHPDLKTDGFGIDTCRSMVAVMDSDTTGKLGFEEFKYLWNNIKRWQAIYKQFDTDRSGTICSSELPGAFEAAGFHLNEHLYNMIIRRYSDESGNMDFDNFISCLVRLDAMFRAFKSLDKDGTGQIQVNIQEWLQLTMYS
Description: (§1) The inhibitory activity of the compounds NA112A (S-S isomer) and NA112B (S-R stereoisomer) against calpain-1 and calpain-2 were determined.

[1] = Stability in mouse plasma at 37° C. (residual inhibition of purified human calpain-2); type: in vitro ADME; settings: β-cyclodextrin formulation, 10 μM
Description: NA112 (C12, 0.2 mM) was incubated with mouse plasma at 37° C. for the indicated periods of time. Aliquots were taken and the degree of inhibition of purified human calpain-2 was measured. Results were normalized to the maximum degree of inhibition (100%) measured at to.
NA112A in β-cyclodextrin formulation (10 μM) was incubated in mouse plasma at 37° C. for the indicated periods of time. Aliquots were taken and the degree of inhibition of purified human calpain-2 was measured. Results were normalized to the maximum degree of inhibition (50%) measured at t0.

[2] = molecular target: T2, recombinant human calpain-2 (hcalpain-2) (Homo sapiens, UniProt P17655); test: Inhibition of recombinant human calpain-2; type: biochemical; settings: highest concentration tested, 3 μM
T2 sequence (P17655 1-700): T1 sequence (P17655 1-700)
T2 sequence (P04632 1-268 partner): T1 sequence (P04632 1-268 partner)
Description: (§2) Various concentrations of NA112 in the liposomal formulation were incubated with human calpain-1 (purified from erythrocytes, ecalpain-1) or a recombinant human calpain-2 (hcalpain-2) and calpain activity assayed as in FIG. 1. IC50 were determined and transformed into Ki values (FIG. 10A, 10B). Values previously obtained with NA112 dissolved in DMSO are shown for comparison (FIG. 10B).
(§3) Cerebellar homogenates from wild-type (WT) or calpain-1 Knock-out (KO) mice were incubated with 20 μM calcium to activate calpain-1 or with 2 mM calcium to activate calpain-2, respectively, and increasing concentrations of NA184.
(§4) Like in NA112, there are 2 chiral centers in NA184. The inhibitory activity of the compounds NA184A (S-S isomer) and NA184B (S-R stereoisomer) against erythrocyte human calpain-1 (ecalpain-1) and recombinant human calpain-2 (hcalpain-2) were determined.

[3] = Epimerization/inactivation in PBS at 37° C.; type: physicochemical
[4] = molecular target: T3, human calpain-1 (purified from erythrocytes, ecalpain-1) (Homo sapiens, UniProt P07384); test: Inhibition of human calpain-1 purified from erythrocytes; type: biochemical; settings: highest concentration tested, 3 μM
T3 construct: human calpain-1 (purified from erythrocytes, ecalpain-1); from tissue; host or cells: human erythrocytes
T3 sequence (P07384 1-714): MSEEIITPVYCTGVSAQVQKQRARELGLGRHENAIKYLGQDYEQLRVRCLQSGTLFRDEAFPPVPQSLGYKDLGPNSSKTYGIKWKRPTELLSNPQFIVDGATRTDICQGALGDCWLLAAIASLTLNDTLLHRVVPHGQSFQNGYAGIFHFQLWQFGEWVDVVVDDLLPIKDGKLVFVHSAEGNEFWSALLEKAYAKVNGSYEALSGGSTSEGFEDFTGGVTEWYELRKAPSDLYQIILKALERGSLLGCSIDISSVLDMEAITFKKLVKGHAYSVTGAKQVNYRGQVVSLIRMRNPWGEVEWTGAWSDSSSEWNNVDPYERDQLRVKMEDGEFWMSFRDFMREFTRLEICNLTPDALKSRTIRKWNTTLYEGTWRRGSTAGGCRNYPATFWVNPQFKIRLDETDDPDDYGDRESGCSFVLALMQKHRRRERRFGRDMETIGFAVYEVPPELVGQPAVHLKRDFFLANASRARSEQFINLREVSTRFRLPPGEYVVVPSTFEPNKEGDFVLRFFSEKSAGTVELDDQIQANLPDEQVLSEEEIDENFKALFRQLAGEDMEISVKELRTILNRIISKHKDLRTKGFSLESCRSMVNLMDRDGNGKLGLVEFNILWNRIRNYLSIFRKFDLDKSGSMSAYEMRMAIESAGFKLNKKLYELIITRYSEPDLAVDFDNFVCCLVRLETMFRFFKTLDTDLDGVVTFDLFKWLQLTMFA
T3 sequence (P04632 1-268 partner): T1 sequence (P04632 1-268 partner)
Description: as §2, §3, §4

calpain-1 = molecular target: T4, calpain-1 (Homo sapiens, UniProt P07384); test: Inhibitory activity of NA112 isomers against calpain-1; type: biochemical; settings: highest concentration tested, 3 μM
T4 sequence (P07384 1-714): T3 sequence (P07384 1-714)
T4 sequence (P04632 1-268 partner): T1 sequence (P04632 1-268 partner)
Description: as §1

Row | Inhibitory activity against calpain-2 (calpain-2) | Inhibitory activity against hcalpain-2 [2] | Inhibitory activity against ecalpain-1 [4] | Inhibitory activity against calpain-1 (calpain-1) | SMILES | Inactivation in mouse plasma [1] | Epimerization/inactivation in PBS [3]
1 | expected inhibitory activity |  |  |  | CC[C@H](NC(=O)[C@H](CC(C)C)NC(=O)NCc1ccccc1)C(=O)C(=O)NCc1cc(OC)cc(OC)c1 [NA112A, (S)-2-(3-benzylureido)-N-((S)-1-((3,5-dimethoxybenzyl)amino)-1,2-dioxopentan-3-yl)-4-methylpentanamide] | rapidly inactivated; also recorded: became inactive | 
2 |  | expected inhibitory activity | expected inhibitory activity |  | CC[C@H](NC(=O)[C@H](CC(C)C)NC(=O)NCc1ccccc1)C(=O)C(=O)NCc1cccc(Cl)c1OC [NA184A] |  | rapidly inactivated; also recorded: rapid epimerization
3 | no inhibitory activity |  |  | no inhibitory activity | CC[C@@H](NC(=O)[C@H](CC(C)C)NC(=O)NCc1ccccc1)C(=O)C(=O)NCc1cc(OC)cc(OC)c1 [NA112B] |  | 
4 |  | no inhibitory activity | no inhibitory activity |  | CC[C@@H](NC(=O)[C@H](CC(C)C)NC(=O)NCc1ccccc1)C(=O)C(=O)NCc1cccc(Cl)c1OC [NA184B] |  | 
